Some results are limits rather than exact numbers.

The source of these data is ChEMBL document CHEMBL1127485, “Photoactivatable 2-(4'-azidotetrafluorophenyl)-5-tert-butyl-1,3-dithiane-bis- sulfone and related compounds as candidate irreversible probes for the GABA-gated chloride channels” (J Med Chem, 1994).

A short description of one experiment: Binding affinity towards convulsant site of the GABAA receptor was determined in bovine cortical P2 membranes using [3H]TBOB as radioligand. In kind it is cell membranes.
Regarding `CC(C)(C)C1CSC(c2ccccc2O)SC1` (stereo unspecified), the Ki stood at 1800 nM.

Regarding `CC(C)(C)C1CSC(c2ccccc2)SC1` (stereo unspecified), the Ki was 250 nM.

For `CC(C)(C)C1CS(=O)(=O)C(c2ccc(Br)cc2)S(=O)(=O)C1` (stereo unspecified), the affinity corresponds to a Ki of 3 nM. Still for that read-out and setting: under `CC(C)(C)C1CS(=O)(=O)C(c2c(F)c(F)c(N=[N+]=[N-])c(F)c2F)S(=O)(=O)C1` (stereo unspecified) stands 180 nM; under `CC(C)(C)C1CS(=O)(=O)C(C2=CC(=[N+]=[N-])C=C(Br)C2=O)S(=O)(=O)C1` (stereo unspecified), more than 30000 nM. Take `CC(C)(C)C1CS(=O)(=O)C(c2ccccc2O)S(=O)(=O)C1` (stereo unspecified): the Ki amounted to 23900 nM. For the molecule `CC(C)(C)C12COC(C3=CC(=O)C(Br)=CC3=[N+]=[N-])(OC1)OC2`, the Ki came out at 600 nM. For `CC(C)(C)C1CSC(c2ccc(Br)cc2)SC1` (stereo unspecified), the affinity corresponds to a Ki of 280 nM.

In turn, `CC(C)(C)C1CSC(C2=CC(=[N+]=[N-])C=C(Br)C2=O)SC1` (stereo unspecified) registered a Ki of 2200 nM. `CC(C)(C)C12COC(c3ccccc3)(OC1)OC2` yielded a Ki of 18 nM. For `CC(C)(C)C1CS(=O)(=O)C(C2=CC(=[N+]=[N-])C=CC2=O)S(=O)(=O)C1` (stereo unspecified), the Ki stood at 250000 nM. `CC(C)(C)C1CSC(c2cc([N+](=O)[O-])cc(Br)c2O)SC1` (stereo unspecified) displayed a Ki of 220 nM. For `CC(C)(C)C1CSC(C2=CC(=[N+]=[N-])C=CC2=O)SC1` (stereo unspecified), the Ki stood at 14000 nM. `CC(C)(C)C1CSC(c2cc(O)c(Br)cc2[N+](=O)[O-])SC1` (stereo unspecified) registered a Ki of 4500 nM. The same measure, in the same setting: the value for `CC(C)(C)C1CSC(c2cc([N+](=O)[O-])ccc2O)SC1` (stereo unspecified) was 560 nM. In turn, `CC(C)(C)C12COC(c3ccc(Br)cc3)(OC1)OC2` returned a Ki of 9 nM.

For the molecule `CC(C)(C)C1CS(=O)(=O)C(c2cc([N+](=O)[O-])cc(Br)c2O)S(=O)(=O)C1` (stereo unspecified), the affinity corresponds to a Ki of 530 nM.

As for `CC(C)(C)C1CS(=O)(=O)C(c2cc(O)c(Br)cc2[N+](=O)[O-])S(=O)(=O)C1` (stereo unspecified), the Ki was more than 30000 nM. The same measure, in the same setting: under `CC(C)(C)C1CS(=O)(=O)C(c2ccccc2)S(=O)(=O)C1` (stereo unspecified) stands 510 nM. `CC(C)(C)C1CSC(c2cc(O)ccc2[N+](=O)[O-])SC1` (stereo unspecified): the affinity corresponds to a Ki of 8000 nM. The same measure, in the same setting: under `CC(C)(C)C1CSC(C2=CC(=O)C(Br)=CC2=[N+]=[N-])SC1` (stereo unspecified) stands 3600 nM; under `CC(C)(C)C1CS(=O)(=O)C(c2cc(O)ccc2[N+](=O)[O-])S(=O)(=O)C1` (stereo unspecified), 52000 nM. On to `CC(C)(C)C12COC(c3ccccc3O)(OC1)OC2`, for which the Ki amounted to 59 nM. As for `CC(C)(C)C1CSC(C2=CC(=O)C=CC2=[N+]=[N-])SC1` (stereo unspecified), affinity was put at a Ki of 30000 nM.

The molecule `CC(C)(C)C1CS(=O)(=O)C(c2cc([N+](=O)[O-])ccc2O)S(=O)(=O)C1` (stereo unspecified) had a Ki of 18000 nM.

Another experiment can be described thus: Binding affinity for convulsant site of GABA-A receptor in bovine cortical P2 membranes using [3H]TBOB as radioligand (Unstable). In kind it is cell membranes, Bos taurus.
`CC(C)(C)C1CSC(c2c(F)c(F)c(N=[N+]=[N-])c(F)c2F)SC1` (stereo unspecified): the Ki entry is reported as “Unstable”.
